“Also recorded” adds a separate entry of the source. One block for each substance: values may come before it. Where no end group is shown, it is not given here.
Experiments:
Mis16 [1] = molecular target: T1, Mis16 (Schizosaccharomyces pombe, UniProt O94244); test: ITC competition between H4α1 and Mis19 site C peptides for Mis16; format: binding, S. pombe; settings: Mis16 preincubated with one peptide before titration of the second, 30°C, pH 7.5
T1 construct: double-Strep-Tactin tag (TEV protease-cleavable) (N, cleaved yes); made in house; host or cells: insect cells (baculovirus made in Sf21, expression in Hi5)
T1 sequence (O94244 whole entry): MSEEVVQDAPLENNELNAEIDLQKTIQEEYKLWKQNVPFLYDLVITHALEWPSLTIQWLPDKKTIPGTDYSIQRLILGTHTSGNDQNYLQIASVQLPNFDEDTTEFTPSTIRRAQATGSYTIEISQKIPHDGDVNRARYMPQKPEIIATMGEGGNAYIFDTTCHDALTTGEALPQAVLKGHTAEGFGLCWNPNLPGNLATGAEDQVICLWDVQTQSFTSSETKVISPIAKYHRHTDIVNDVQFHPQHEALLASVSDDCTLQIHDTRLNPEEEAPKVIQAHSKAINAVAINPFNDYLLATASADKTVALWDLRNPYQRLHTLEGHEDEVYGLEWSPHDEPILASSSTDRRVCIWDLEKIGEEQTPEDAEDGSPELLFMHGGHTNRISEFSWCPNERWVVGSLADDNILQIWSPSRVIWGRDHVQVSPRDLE
Description: Figure 3.
(§1) ITC experiments were performed at 30°C using an iTC200 (MicroCal). Samples were concentrated in a 50 mM Tris, pH 7.5, 100 mM NaCl, 4% glycerol, and […] buffer. Protein concentrations were determined using a spectrophotometer. The concentration of protein complex in the ITC cell was 26 μM. The lyophilised peptides of histone H4^27–50 or Mis19^97–112 were dissolved in the ITC buffer to a concentration of 260 μM. 3-μl injections were performed at 1,000 rpm stirring speed with an injection spacing of 3 min. The thermodynamic data were processed with the ORIGIN program (MicroCal).

Mis16 [2] = molecular target: T1, Mis16; test: ITC binding of peptides to Mis16; set-up: species or system S. pombe; settings: for binding to Mis16 (in words): 30°C, mutants of the Mis19 C-terminal peptide (residues 97–112)
Description: as §1

[3] = system: Mis16–Mis18–Mis19 complex; test: Competition assay by size-exclusion chromatography: disruption of Mis16–Mis18–Mis19 complex; format: binding, S. pombe; settings: preformed complex challenged with peptides from Mis19 N terminus
Source text: It has previously been reported that the interaction between Mis18 and Mis 19 occurs via the N-terminal region of Mis19 binding to the C terminus (coiled-coil) of Mis18 ([Hayashi et al, 2014]). We tried to analyse this interaction in more detail. Given that residues 56–112 of Mis19 are involved interactions with Mis16, we constructed two truncations of Mis19 with half of the remaining N-terminal residues deleted in each case (Mis19^27-C and Mis19^44-C). We first asked if these Mis16–Mis19 constructs could still interact with Mis18 in an affinity pull-down experiment (Figs 6A and S6A). […] We then add Mis18 to the Mis16–Mis19 constructs. […] To further analyse these interactions, we carried out competition assays, challenging preformed Mis16–Mis18–Mis19 complex with peptides from the N terminus of Mis19, analysing the results both by size-exclusion chromatography and affinity pull-down assays. […] To try and pinpoint the residues that might be responsible for the interaction with Mis18, we carried out a sequence alignment of the Mis19 N terminus and noticed two conserved stretches of residues characterised by an IxxxF pattern (motif 1) and LxxF (motif 2) (Fig 7A). The two motifs are coincident with the two truncations we identified: between residues 1–27 and 28–44, respectively. As the N terminus of Mis19 is likely to be solvent-exposed (from our crystal structure), we reasoned that the conserved hydrophobic residues probably participate in protein–protein interactions. To test this, we carried out another set of competition experiments using the intact Mis16–18–19 complex and peptides carrying mutations in motifs 1 and 2, separately or combined (Fig 7B).
Figure 6. The Mis19 N terminus binds Mis18. (A) Mis16–Mis18–Mis19 interactions assessed by pull-down. Input proteins are shown on the left. Binding of Mis16–Mis19 and Mis19 truncations to Mis18 are assessed by pull-down of Mis19 (right). (B) Mis16–19–18 binding assessed by size-exclusion and competition assays. Preformed Mis16–18–19 complex was challenged with peptides derived from the N terminus of Mis19 (indicated). […]

Mis16 [4] = molecular target: T1, Mis16; test: Co-expression and affinity pull-down/size-exclusion co-purification of Mis19 deletions with Mis16; format: binding, S. pombe; settings: co-expressed in insect cells, Strep-Tactin tag on Mis16, gel filtration, SDS–PAGE band
Source text: Figure 2. Mis16–Mis19 contact regions. (A) Crystal structure of Mis16–Mis19 highlighting the Mis19-binding sites. Three putative binding sites A, B, and C (lighter to darker orange from N terminus to C terminus) are indicated. (B) Schematic of the various deletion constructs of Mis19 are used for binding studies showing the positions of sites A, B, and C. (C) Constructs containing affinity-tagged Mis16 and the Mis19 deletions shown above were co-expressed and purified by affinity pull-down and size-exclusion chromatography. SDS–PAGE gel of peak fractions is shown. Asterisks indicate impurities. (D) Close-up of the A- and C-binding sites. The locations of the kis1-1 (R65) and eic1-1 (F102) t.s. mutant residues are shown.
The C-terminal interaction of Mis19 with Mis16 (site C in our nomenclature) has been previously described ([An et al, 2018]). […] To test the contribution of the individual sites to the Mis16–Mis19 interaction, various truncated Mis19 constructs were designed, for which site A, […], or both A and C are missing (Fig 2B). Full-length Mis16 and Mis19C (includes sites A, B, and C, residues 52–112), construct 1 (includes site B and C, residues 66–112), construct 2 (includes binding site B, residues 66–99), and construct 3 (includes site A and B, residues 52–99) were co-expressed in insect cells, as the isolated Mis19 truncations cannot be expressed and purified. The complexes were purified using a Strep-Tactin affinity tag on Mis16 and subsequent gel filtration step. All complexes elute from gel filtration as a single species. […] This site is formed by part of the unstructured region of Mis19 running across the top edge of Mis16.
All proteins were expressed in insect cells using standard procedures. Genes were codon-optimised in all cases (GeneArt). Single protein constructs were cloned in pFastBac vectors (Invitrogen), whereas multi-protein complexes were cloned using the MultiBac system ([Fitzgerald et al, 2006]). The Mis16 protein carried a TEV protease-cleavable double-Strep-Tactin tag at the N terminus for purification purposes. All clones were sequence verified. […]

[5] = system: Mis16–Mis18–Mis19 complex; test: Competition assay by pull-down: disruption of Mis16–Mis18–Mis19 complex; format: binding, S. pombe; settings: preformed Mis16–Mis19–Strep–Mis18 complex challenged with peptide, SDS–PAGE
Source text: It has previously been reported that the interaction between Mis18 and Mis 19 occurs via the N-terminal region of Mis19 binding to the C terminus (coiled-coil) of Mis18 ([Hayashi et al, 2014]). We tried to analyse this interaction in more detail. Given that residues 56–112 of Mis19 are involved interactions with Mis16, we constructed two truncations of Mis19 with half of the remaining N-terminal residues deleted in each case (Mis19^27-C and Mis19^44-C). We first asked if these Mis16–Mis19 constructs could still interact with Mis18 in an affinity pull-down experiment (Figs 6A and S6A). […] We then add Mis18 to the Mis16–Mis19 constructs. […] To further analyse these interactions, we carried out competition assays, challenging preformed Mis16–Mis18–Mis19 complex with peptides from the N terminus of Mis19, analysing the results both by size-exclusion chromatography and affinity pull-down assays. […]
Figure 6. […] (A) Mis16–Mis18–Mis19 interactions assessed by pull-down. […] Binding of Mis16–Mis19 and Mis19 truncations to Mis18 are assessed by pull-down of Mis19 (right). (B) Mis16–19–18 binding assessed by size-exclusion and competition assays. […]
All in vitro pull-down assays were performed using purified proteins or protein complexes. […] Input and pull-down elution samples were analysed by SDS–PAGE.

[6] = ITC, 50 mM Tris, pH 7.5, 100 mM NaCl, 4% glycerol

- binding to Mis16 (in words) (Mis16 [2]; [6]): reduced but did not abolish binding
Substance: LHNRSFLRRNVRAVKM [Mis19 V101S]

- binding to Mis16 (in words) (Mis16 [2]; [6]): substantially reduced binding
Substance: Mis19 R105A: point mutant of the Mis19 C-terminal peptide (residues 97–112) (LHNRVFLRANVRAVKM)

- binding to Mis16 (in words) (Mis16 [2]; [6]): reduced but did not abolish binding
Substance: LHNRVSLRRNVRAVKM [Mis19 F102S]

Continued, substance first:

Substance: LHNRVFLRRNVRAVKM [Mis19α2]
- competition / displacement of the other peptide from Mis16 (in words) (Mis16 [1]): capable of competing out histone H4α1
- increase in affinity over H4α1 (Mis16 [2]; ratio of KD values, Mis16, ITC): 3.6 fold

Substance: Mis19^1–44: peptide from the N terminus of Mis19 (MDLMPLEKARAIEIAFDNVFHNTKIPDNLQQFDAILKRLERRRF)
- disruption of preformed Mis16–Mis18–Mis19 complex (size-exclusion) [3]: effectively disrupts the complex, splitting it into a Mis18-containing and Mis16–Mis19–containing fractions

Substance: Mis19 V101S F102S R105A: triple mutant of the Mis19 C-terminal peptide (residues 97–112) (LHNRSSLRANVRAVKM; UniProt O42995 97-112, looked up, variant V101S F102S R105A)
- binding to Mis16 (in words) (Mis16 [2]; [6]): completely abolished the interaction
- KD (Mis16 [2]; ITC, iTC200, 30°C, 50 mM Tris, pH 7.5, 100 mM NaCl, 4% glycerol, 0.5 TCEP, 26 μM in cell, peptide 260 μM, 3-μl injections, 1,000 rpm, spacing 3 min): no binding

Substance: construct 2: Mis19 deletion, includes binding site B, residues 66–99 (EFGVKDNHNHPINLHSLRSKSLIRAQGKKLDLHN; UniProt O42995 66-99, looked up, fragment)
- association with Mis16 (Mis16 [4]): only Mis16 could be detected

Substance: Mis19^1–27: peptide from the N terminus of Mis19 (MDLMPLEKARAIEIAFDNVFHNTKIPD)
- disruption of preformed Mis16–Mis18–Mis19 complex (pull-down) [5]: no effect on complex formation
- disruption of preformed Mis16–Mis18–Mis19 complex (size-exclusion) [3]: no effect on complex formation

Substance: construct 3: Mis19 deletion, includes site A and B, residues 52–99 (PRVYETELLVLRFREFGVKDNHNHPINLHSLRSKSLIRAQGKKLDLHN; UniProt O42995 52-99, looked up, fragment)
- association with Mis16 (Mis16 [4]): Mis19 is associated with Mis16; also recorded: still able to interact with Mis16, although rather more weakly than the full-length protein

Substance: Mis19^28–44: peptide from the N terminus of Mis19 (NLQQFDAILKRLERRRF)
- disruption of preformed Mis16–Mis18–Mis19 complex (pull-down) [5]: no effect on complex formation
- disruption of preformed Mis16–Mis18–Mis19 complex (size-exclusion) [3]: no effect on complex formation

Substance: construct 1: Mis19 deletion, includes site B and C, residues 66–112 (EFGVKDNHNHPINLHSLRSKSLIRAQGKKLDLHNRVFLRRNVRAVKM; UniProt O42995 66-112, looked up, fragment)
- association with Mis16 (Mis16 [4]): Mis19 is associated with Mis16

From PMC6677171, “Subunit interactions and arrangements in the fission yeast Mis16–Mis18–Mis19 complex” (Life Science Alliance, 2019)
